Test results reported in ChEMBL document CHEMBL3526122, “Identification of UDP-glucuronosyltransferases responsible for the glucuronidation of darexaban, an oral factor Xa inhibitor, in human liver and intestine” (Drug Metab Dispos, 2012).

How the values were obtained:
[1] = target: T1, UDP-glucuronosyltransferase 1A10 (Homo sapiens, UniProt Q9HAW8); assay: Activity of human recombinant UGT1A10 expressed in baculovirus-infected insect cells assessed as intrinsic clearance for enzyme-mediated glucuronide formation per mg of protein at 1 to 250 uM after 10 mins in presence of UDPGA; assay type: ADME
T1 sequence (Q9HAW8 whole entry): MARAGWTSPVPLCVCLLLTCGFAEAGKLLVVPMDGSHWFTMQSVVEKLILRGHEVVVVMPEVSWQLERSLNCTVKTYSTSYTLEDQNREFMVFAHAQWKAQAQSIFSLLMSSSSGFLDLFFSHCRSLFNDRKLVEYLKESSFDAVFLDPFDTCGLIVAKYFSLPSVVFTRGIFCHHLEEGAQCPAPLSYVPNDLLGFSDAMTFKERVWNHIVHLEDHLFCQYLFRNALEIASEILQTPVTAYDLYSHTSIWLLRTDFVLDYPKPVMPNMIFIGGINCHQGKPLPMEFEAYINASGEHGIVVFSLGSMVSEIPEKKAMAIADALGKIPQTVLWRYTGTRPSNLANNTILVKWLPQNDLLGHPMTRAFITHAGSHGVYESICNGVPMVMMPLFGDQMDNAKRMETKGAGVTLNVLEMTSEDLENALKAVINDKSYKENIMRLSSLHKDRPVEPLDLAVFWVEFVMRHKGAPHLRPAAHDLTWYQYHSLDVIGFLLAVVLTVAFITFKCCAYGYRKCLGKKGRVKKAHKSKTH

[2] = Drug metabolism in human intestinal microsomes assessed as glucuronidation per mg of protein after 5 mins by Michaelis-Menten plot analysis in presence of UDPGA; assay type: ADME, Intestine, Microsome
[3] = target: T2, UDP-glucuronosyltransferase 1A4 (Homo sapiens, UniProt P22310); assay: Activity of human recombinant UGT1A4 expressed in baculovirus-infected insect cells assessed as enzyme-mediated glucuronidation per mg of protein after 10 mins in presence of UDPGA; assay type: ADME
T2 sequence (P22310 whole entry): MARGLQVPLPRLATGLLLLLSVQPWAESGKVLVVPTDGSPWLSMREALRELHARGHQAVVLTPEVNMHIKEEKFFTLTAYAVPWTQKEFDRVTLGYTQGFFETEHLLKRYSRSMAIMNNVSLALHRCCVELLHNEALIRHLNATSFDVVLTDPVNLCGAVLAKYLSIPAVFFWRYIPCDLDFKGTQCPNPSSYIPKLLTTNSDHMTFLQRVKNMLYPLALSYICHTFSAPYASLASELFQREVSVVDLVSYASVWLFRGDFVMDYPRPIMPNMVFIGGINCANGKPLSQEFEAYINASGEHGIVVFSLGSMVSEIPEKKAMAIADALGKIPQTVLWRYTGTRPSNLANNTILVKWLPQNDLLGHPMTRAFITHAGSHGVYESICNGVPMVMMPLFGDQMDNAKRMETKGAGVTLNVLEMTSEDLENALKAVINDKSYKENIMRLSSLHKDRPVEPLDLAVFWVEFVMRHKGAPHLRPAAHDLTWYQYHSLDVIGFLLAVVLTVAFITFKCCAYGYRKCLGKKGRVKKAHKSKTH

[4] = target: T3, UDP-glucuronosyltransferase 1A8 (Homo sapiens, UniProt Q9HAW9); assay: Inhibition of human recombinant UGT1A8 after 10 mins in presence of UDPGA; assay type: ADME
T3 sequence (Q9HAW9 whole entry): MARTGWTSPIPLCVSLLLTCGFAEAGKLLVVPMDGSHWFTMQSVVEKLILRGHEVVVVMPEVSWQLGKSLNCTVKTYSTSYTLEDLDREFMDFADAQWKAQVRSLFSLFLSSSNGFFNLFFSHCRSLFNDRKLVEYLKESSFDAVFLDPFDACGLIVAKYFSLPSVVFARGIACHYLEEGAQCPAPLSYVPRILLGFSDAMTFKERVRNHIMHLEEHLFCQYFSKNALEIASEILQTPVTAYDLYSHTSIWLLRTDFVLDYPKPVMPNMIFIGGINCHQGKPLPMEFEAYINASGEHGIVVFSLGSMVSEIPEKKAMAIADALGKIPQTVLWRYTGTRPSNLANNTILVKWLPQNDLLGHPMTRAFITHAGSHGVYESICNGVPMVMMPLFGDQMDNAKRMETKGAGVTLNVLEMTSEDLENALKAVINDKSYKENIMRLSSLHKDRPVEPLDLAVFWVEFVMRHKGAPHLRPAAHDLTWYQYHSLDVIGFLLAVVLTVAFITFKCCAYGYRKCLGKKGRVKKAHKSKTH

Liver microsome = assay: Drug metabolism in human liver microsomes assessed as glucuronidation per mg of protein after 10 mins by Michaelis-Menten plot analysis in presence of UDPGA and 0.1% fatty acid free BSA; assay type: ADME
[5] = target: T4, UDP-glucuronosyltransferase 1A9 (Homo sapiens, UniProt O60656); assay: Activity of human recombinant UGT1A9 expressed in baculovirus-infected insect cells assessed as unbound intrinsic clearance for enzyme-mediated glucuronidation per mg of protein after 5 mins by Michaelis-Menten plot analysis in presence of UDPGA and absence of fatty acid free BSA; assay type: ADME
T4 sequence (O60656 whole entry): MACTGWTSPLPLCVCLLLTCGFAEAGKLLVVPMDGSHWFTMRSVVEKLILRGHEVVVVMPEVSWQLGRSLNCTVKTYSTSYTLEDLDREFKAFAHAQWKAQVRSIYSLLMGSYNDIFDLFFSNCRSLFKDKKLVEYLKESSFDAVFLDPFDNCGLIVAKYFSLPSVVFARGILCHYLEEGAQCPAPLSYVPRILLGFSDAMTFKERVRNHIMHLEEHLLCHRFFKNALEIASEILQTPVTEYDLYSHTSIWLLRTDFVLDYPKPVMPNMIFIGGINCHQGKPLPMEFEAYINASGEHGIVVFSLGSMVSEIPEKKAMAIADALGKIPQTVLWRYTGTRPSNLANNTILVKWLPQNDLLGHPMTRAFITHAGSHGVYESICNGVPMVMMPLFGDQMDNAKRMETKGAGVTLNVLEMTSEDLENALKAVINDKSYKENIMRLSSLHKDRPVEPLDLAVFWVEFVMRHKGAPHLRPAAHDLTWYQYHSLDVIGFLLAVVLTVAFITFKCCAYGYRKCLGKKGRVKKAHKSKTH

[6] = target: T4, UDP-glucuronosyltransferase 1A9; assay: Activity of human recombinant UGT1A9 expressed in baculovirus-infected insect cells assessed as unbound intrinsic clearance for enzyme-mediated glucuronidation per mg of protein after 5 mins by Michaelis-Menten plot analysis in presence of UDPGA and 0.1% fatty acid free BSA; assay type: ADME
[7] = Fraction unbound in human liver microsomes at 1 to 250 uM after 10 mins by ultrafiltration method in absence of fatty acid free BSA; assay type: ADME
[8] = Fraction unbound in human liver microsomes at 1 to 250 uM after 10 mins by ultrafiltration method in presence of 0.5% fatty acid free BSA; assay type: ADME
[9] = Fraction unbound incubation mixture containing human recombinant UGT1A9 at 1 to 250 uM after 10 mins by ultrafiltration method in presence of 0.5% fatty acid free BSA
[10] = Fraction unbound incubation mixture containing human recombinant UGT1A9 at 1 to 250 uM after 10 mins by ultrafiltration method in presence of 2% fatty acid free BSA
[11] = Drug metabolism in human liver microsomes assessed as glucuronidation after 10 mins by Michaelis-Menten plot analysis in presence of UDPGA and 0.5% fatty acid free BSA; assay type: ADME; conditions: read-out: Km(unbound)

clearance [1]: 39.8 µL/min/mg | Vmax [2]: 4.53 nmol/min/mg | Drug metabolism [3]: < 0.01 nmol/min/mg | Ki [4]: 354 µM | Vmax (Liver microsome): 3.25 nmol/min/mg | CL free [5]: 138 µL/min/mg | CL free [6]: 250 µL/min/mg | fraction unbound at 10 min, up to 250 µM [7]: 0.873 | fraction unbound at 10 min, up to 250 µM [8]: 0.517 | Km at 10 min [11]: 17.7 µM
SMILES: COc1ccc(C(=O)Nc2cccc(O)c2NC(=O)c2ccc(N3CCCN(C)CC3)cc2)cc1.O=C(O)CCC(=O)O
Fu [9]: 0.553 | Fu [10]: 0.237
